3 compounds from publication PMC8498988, “Scaffold Hybridization Strategy Leads to the Discovery of Dopamine D3 Receptor-Selective or Multitarget Bitopic Ligands Potentially Useful for Central Nervous System Disorders” (ACS Chemical Neuroscience, 2021) can be followed below.

The target of one assay is T1, D4R (Homo sapiens, UniProt P21917).
T1 sequence (P21917 1-419): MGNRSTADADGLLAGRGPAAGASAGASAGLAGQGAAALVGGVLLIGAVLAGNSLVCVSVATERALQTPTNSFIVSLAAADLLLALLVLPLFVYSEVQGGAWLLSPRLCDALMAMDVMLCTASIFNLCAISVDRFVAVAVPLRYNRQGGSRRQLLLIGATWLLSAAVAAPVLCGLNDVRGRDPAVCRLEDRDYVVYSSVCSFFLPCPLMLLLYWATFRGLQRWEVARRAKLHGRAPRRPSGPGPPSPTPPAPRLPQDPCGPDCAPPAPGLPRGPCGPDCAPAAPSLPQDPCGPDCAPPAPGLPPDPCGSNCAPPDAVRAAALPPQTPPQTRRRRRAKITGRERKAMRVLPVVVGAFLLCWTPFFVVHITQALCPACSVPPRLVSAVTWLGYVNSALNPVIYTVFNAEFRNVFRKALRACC
Description: D4 adenylate cyclase/cAMP functional assay (HEK-D4.4-AC1 cells). The format is cell-based. Conditions: for EC50 / % stimul., D4 adenylate cyclase: agonist mode; for EC50: inhibition of forskolin-stimulated cAMP formation; for % stimul., D4 adenylate cyclase: normalized to maximal effect of quinpirole; for functional behavior at D4R: in words. Further details: expressed in transfected cells; host or cells: HEK-D4.4-AC1 cells. The protocol:
HEK-D4.4-AC1 cells are grown to confluency on […]. The cells are plated at a density of 375,000 cells per well in 48-well plates in DMEM supplemented with 5% FetalClone, 5% BCS, and pen-strep. After ∼36 h, the medium is changed to DMEM supplemented with 10% charcoal-stripped FetalClone and pen-strep. The medium is removed ∼18 h later. For agonist assays, 0.8 mL of EBSS (116 mM NaCl, 22 mM glucose, 15 mM HEPES, 8.7 mM NaH2PO4, 5.4 mM KCl, 1.3 mM CaCl2, 1.2 mM MgSO4, 1 mM ascorbic acid, 0.5 mM IBMX [3-isobutyl-1-methyl-xanthine], and 2% BCS, pH 7.4 at 37 °C) is added, cells are incubated for 20 min, agonists are added, and, after a 20 min incubation, 10 μM of forskolin is added in a final volume of 1 mL. For antagonists, 0.7 mL of EBSS is added, cells are incubated for 10 min, antagonists are added, cells are incubated for 10 min, 2 nM quinpirole is added, and after a 20 min incubation, 10 μM forskolin is added in a final volume of 1 mL. For all conditions, after a 20 min incubation with forskolin, the reaction is terminated by aspiration of the buffer, and 0.1 mL of trichloroacetic acid is added. The plates are incubated for 2 h on a rotator. Adenylate cyclase activity is measured using a cyclic AMP EIA kit (Cayman). Aliquots (9 μL) of each well are diluted to 200 μL with EIA buffer from the kit, and 50 μL of dilution is added to the EIA plate. After addition of tracer and monoclonal antibody, the EIA plates are incubated for 18 h at 4 °C. The reaction is aspirated, the plates are washed with 5 × 300 μL wash buffer, and Ellman’s reagent is added. After a 2 hour incubation in the dark on a rotator, the plates are read at 410 nm. Basal cAMP is subtracted from all values. D4R agonists inhibit forskolin-stimulated cAMP formation, and maximal inhibition is defined with 1 μM quinpirole. Data normalized to percent forskolin stimulation are shown in the graph. The maximal effect is normalized to maximal effect of quinpirole in the tables. For antagonists, maximal reversal of inhibition of cAMP formation is defined with 10 μM haloperidol.
(Changes in cAMP serve as a functional read-out for many G protein-coupled receptors.)

For a further assay, the target named is D3R (Homo sapiens, UniProt P35462). Kind of assay: Radioligand competition binding at human D3R ([3H]N-methylspiperone, HEK293 membranes). Further details: expressed in transfected cells; host or cells: HEK293. As to conditions: selectivity. In general terms: In a radioligand displacement assay an active substance lowers the binding of a labelled ligand.

Molecules are shown by their SMILES.

Chain of D3R (P35462 whole entry): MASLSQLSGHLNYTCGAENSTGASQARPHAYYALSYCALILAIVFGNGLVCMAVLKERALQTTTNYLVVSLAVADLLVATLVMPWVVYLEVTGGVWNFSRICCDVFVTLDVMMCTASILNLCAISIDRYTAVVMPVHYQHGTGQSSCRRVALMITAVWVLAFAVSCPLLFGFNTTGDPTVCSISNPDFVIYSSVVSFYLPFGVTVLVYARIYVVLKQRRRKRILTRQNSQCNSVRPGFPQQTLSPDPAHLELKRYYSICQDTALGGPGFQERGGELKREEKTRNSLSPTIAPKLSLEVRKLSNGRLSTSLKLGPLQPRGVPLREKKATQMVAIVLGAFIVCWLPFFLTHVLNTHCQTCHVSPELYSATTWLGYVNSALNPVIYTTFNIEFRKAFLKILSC

With `O=C(NCCCCN1CCN(c2cccc(Cl)c2Cl)CC1)C1COC(c2ccccc2)(c2ccccc2)CO1` (stereo not shown) [compound 6, N-(4-(4-(2,3-Dichlorophenyl)piperazin-1-yl)butyl)-5,5-diphenyl-1,4-dioxane-2-carboxamide], on D4R, the EC50 was 21.7 ± 8.4 nM; the “% stimul., D4 adenylate cyclase” value worked out at 76.7%; the “functional behavior at D4R” value is “efficacious 5-HT1AR and D4R agonists with high potency”.
In the case of `O=C(NCCCCN1CCN(c2cccc(Cl)c2Cl)CC1)C1COCC(c2ccccc2)(c2ccccc2)O1` (stereo not shown) [compound 3, N-(4-(4-(2,3-Dichlorophenyl)piperazin-1-yl)butyl)-6,6-diphenyl-1,4-dioxane-2-carboxamide], the 5-HT1A/D3 at D3R (ratio of Ki values 5-HT1AR/D3R) was 121. The 5-HT2A/D3 on D3R (ratio of Ki values 5-HT2AR/D3R) was 108. The 5-HT2C/D3 on D3R (ratio of Ki values 5-HT2CR/D3R) is on record as 269. Further, the D1/D3 on D3R (ratio of Ki values D1R/D3R) is given as 185.
Consider `O=C(NCCCCN1CCN(c2cccc(Cl)c2Cl)CC1)C1COc2ccccc2O1` (stereo not shown) [compound 9, N-(4-(4-(2,3-Dichlorophenyl)piperazin-1-yl)butyl)-2,3-dihydrobenzo[b][1,4]dioxine-2-carboxamide], for which, on D4R, the concentration for a half-maximal effect (EC50) amounted to 15.3 ± 1.9 nM; the “% stimul., D4 adenylate cyclase” value came out at 73.1%; the “functional behavior at D4R” value was “efficacious 5-HT1AR and D4R agonists with high potency”.

Usually EC50 stands for the concentration giving half of the maximal effect. A low value points to an effect from little substance.
